# “Also recorded” adds a separate entry of the source. Counter-ions that a name gives are not always drawn.
# Experiments:
# urease operon (ureR) = tested on: urease operon (ureR); parameters: method as in PMID 31921010; conditions: cited from earlier work
# P. mirabilis urease [1] = target: T1, P. mirabilis urease (Proteus mirabilis, UniProt P17086); assay type: cell-based
# T1 construct: it utilizes whole bacterial cells, rather than isolated enzyme preparations; endogenous in cells; host or cells: Proteus mirabilis HI4320, live whole cells
# T1 sequence (P17086 whole entry): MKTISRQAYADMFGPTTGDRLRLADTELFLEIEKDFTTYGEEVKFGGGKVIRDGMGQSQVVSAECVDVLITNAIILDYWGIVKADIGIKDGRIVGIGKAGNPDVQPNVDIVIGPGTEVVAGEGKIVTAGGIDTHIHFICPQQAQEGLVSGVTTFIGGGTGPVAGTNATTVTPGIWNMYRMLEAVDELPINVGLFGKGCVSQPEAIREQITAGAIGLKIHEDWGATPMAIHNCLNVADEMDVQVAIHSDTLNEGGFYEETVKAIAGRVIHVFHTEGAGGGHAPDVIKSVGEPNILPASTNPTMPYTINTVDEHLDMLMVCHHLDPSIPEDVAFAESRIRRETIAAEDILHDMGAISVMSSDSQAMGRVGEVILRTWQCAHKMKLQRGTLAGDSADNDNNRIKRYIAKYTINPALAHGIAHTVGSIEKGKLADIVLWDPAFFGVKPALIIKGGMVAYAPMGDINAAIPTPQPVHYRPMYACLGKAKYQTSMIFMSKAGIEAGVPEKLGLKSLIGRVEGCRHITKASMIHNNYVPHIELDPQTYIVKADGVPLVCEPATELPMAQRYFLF
# T1 sequence (P17088 whole entry, further chain): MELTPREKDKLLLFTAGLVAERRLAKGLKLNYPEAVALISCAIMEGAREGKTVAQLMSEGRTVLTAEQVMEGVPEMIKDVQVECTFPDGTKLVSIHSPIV
# T1 sequence (P17087 whole entry, further chain): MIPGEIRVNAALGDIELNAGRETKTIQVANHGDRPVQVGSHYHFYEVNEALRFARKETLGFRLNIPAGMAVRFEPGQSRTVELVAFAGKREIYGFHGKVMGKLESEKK
# Jack Bean Urease (JBU) = target: T2, Jack Bean Urease (JBU) (Canavalia ensiformis, UniProt P07374); assay type: biochemical; conditions: 0.1 U JBU, 500 mM urea
# T2 construct: purchased Sigma-Aldrich
# T2 sequence (P07374 whole entry, looked up): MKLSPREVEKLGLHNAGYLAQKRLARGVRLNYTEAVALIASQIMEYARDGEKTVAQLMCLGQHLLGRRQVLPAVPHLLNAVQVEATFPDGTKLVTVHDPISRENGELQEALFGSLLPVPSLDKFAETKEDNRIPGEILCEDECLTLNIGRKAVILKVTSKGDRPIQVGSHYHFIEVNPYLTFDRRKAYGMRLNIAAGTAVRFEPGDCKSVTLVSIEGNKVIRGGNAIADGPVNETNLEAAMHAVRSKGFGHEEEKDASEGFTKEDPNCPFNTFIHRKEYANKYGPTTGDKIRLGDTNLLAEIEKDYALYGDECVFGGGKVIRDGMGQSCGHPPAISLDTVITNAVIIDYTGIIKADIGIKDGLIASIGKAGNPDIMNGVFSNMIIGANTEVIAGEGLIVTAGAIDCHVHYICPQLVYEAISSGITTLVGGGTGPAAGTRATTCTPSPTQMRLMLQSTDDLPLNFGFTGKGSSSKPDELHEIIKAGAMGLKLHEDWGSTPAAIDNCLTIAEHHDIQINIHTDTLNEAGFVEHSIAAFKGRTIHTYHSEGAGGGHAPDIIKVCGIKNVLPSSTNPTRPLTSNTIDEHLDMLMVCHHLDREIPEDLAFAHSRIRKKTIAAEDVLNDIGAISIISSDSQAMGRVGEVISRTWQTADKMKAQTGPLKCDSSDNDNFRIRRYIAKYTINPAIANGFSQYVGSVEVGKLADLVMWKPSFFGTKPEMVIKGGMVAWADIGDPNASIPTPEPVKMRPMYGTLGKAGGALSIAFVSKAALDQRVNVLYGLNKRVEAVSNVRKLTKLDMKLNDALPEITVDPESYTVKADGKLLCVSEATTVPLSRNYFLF
# Experimental: To measure Jack Bean urease activity, the previously described assay was modified such that 0.1 U (1U liberates 1 µmol of ammonia from urea per minute) of JBU (Sigma-Aldrich urease from Canavalia ensiformis) were distributed into a 96-well plate in place of the bacterial suspensions. Acetohydroxamic acid (AHA), was used as a positive control and a vehicle control was used as a negative control. Percent of maximum urease activity was calculated using Area Under the Curve (AUC) relative to untreated bacteria of interest or untreated JBU. Urease activity measurement in MRSA was adapted from a recently published semi quantitative assay (See Supplementary materials for details)[48].
# 414 Supplementary Figure 13. Microbial metabolites dampen activity of purified Jack Bean
# 415 Urease (JBU). 0.1 U of JBU (1U liberates 1 µmol of ammonia from urea per minute) was
# 416 incubated at 37 °C with shaking in urease-dampening metabolites, 500mM urea, and phenol red.
# 417 A urea analogue, AHA, served as the positive control for inhibition of JBU. Absorbance
# 418 (OD562) was measured every 60 seconds for 90 minutes, and activity is expressed as percent of
# 419 maximum activity (% Max Activity) relative to untreated JBU. Graphs show mean±SD for 3
# 420 independent experiments with 3 technical replicates each. Data were analyzed by two tailed one
# 421 sample t-test to a hypothetical value of 100% activity. ***P<0.001, **P<0.002, *P<0.033.
# (1 picture or pasted object on this page, not shown here)
# [2] = tested on: P. mirabilis urease operon (ureABC, ureEDF); assay: Real-time quantitative PCR of urease operon; assay type: cell-based, Proteus mirabilis; conditions: 15-minute incubation, 500 mM urea
# Experimental: P. mirabilis was cultured for ~18 h in LB broth and then sub cultured until it reached mid-log growth phase (OD600 0.2-0.5). Cultures were spun down to pellet at 10,000 rcf for 10 minutes and resuspended in saline to a final OD600 of 1.0. Cultures were then diluted 1:10 into dampening metabolites buffered 1:10 in potassium phosphate buffer pH7 and supplemented with 500 mM urea. P. mirabilis in potassium phosphate buffer without urea served as a negative control. Cultures were incubated in potassium phosphate buffer with and without dampening metabolites at 37 °C with shaking for 15 minutes. RNA isolation, cDNA synthesis and RT qPCR were performed as described previously. […] A RNA integrity analysis using agarose gel electrophoresis on extracted RNA was performed for all samples to confirm no change in transcript stability (Supplementary Fig 16A). The data were analyzed according to the Relative Quantification (RQ) method by Pfaffl et al. 2001[54] (See Supplementary Information).
# 168 Real-time quantitative PCR analysis. The data were analyzed according to the Relative
# 169 Quantification (RQ) method by Pfaffl et al 2001 (56) in which P. mirabilis potassium phosphate
# 170 buffer without urea was considered as the ‘Control’ and P. mirabilis in potassium phosphate
# 171 buffer supplemented with 500mM urea with and without candidate dampening compounds were
# 172 the ‘Sample.’ The full equation is below.
# (E )ΔCPtarget (control−sample)
# 174 Relative Quantification Ratio = target Equation 2
# (Ereference)ΔCPreference (control−sample)
# 176 In this equation, E refers to the primer efficiency of the target gene (Etarget, urease operon
# 177 subunits) or the reference gene (Ereference, rpoA), and CP refers to the Cycle Point, or the cycle
# 178 number at which the signal exceeds the threshold. […]
# 183 for whole genome sequencing on the Illumina NextSeq2000 platform. Read trimming, and run
# 184 analytics were performed using Trimmomatic v0.39.0 (62). The processed reads were assembled
# 185 using spades v3.15.5 (63) wrapped in Unicycler v0.5.0 (64, 65). Read mapping was done using […]
# M. morganii urease = assay: Urease activity assay, whole cell M. morganii TA43; assay type: cell-based, Morganella morganii
# P. stuartii urease = assay: Urease activity assay, whole cell P. stuartii BE2467; assay type: cell-based, Providencia stuartii
# UTI MRSA urease = UTI MRSA urease activity assay; assay type: cell-based, Staphylococcus aureus; conditions: whole cell, urease broth
# Experimental: 190 Omega and visualization was carried out using ESPript 3.0 (69), enabling comparison across
# 191 different clinical isolates. Urease genes, including the full operon from ureA to ureR, were
# 192 identified and extracted from the prokka annotated genomes. The extracted protein sequences
# 193 were subjected to sequence alignment using Clustal Omega and visualization was carried out
# 194 using ESPript 3.0 [8], enabling comparison across different clinical isolates.
# 195 UTI MRSA urease activity assay. The UTI MRSA urease assay was adapted from a recently-
# 196 published semi quantitative assay to measure urease activity in bacterial species with low overall
# 197 activity under standard conditions (50). Dampening metabolites were directly dissolved in urease
# 198 broth (1 g tryptone (RPI; CAS No. 91079-40-2), 1 g D(+)-glucose (RPI; CAS No. 50-99-7), 2 g
# 199 potassium phosphate monobasic anhydrous (VWR; Lot: 20C1356567), 5 g sodium chloride
# 201 of MilliQ water, pH 5.5, sterilized via autoclaving). UTI MRSA strains from overnight cultures
# 202 were harvested by centrifugation for 5 minutes at 10,000 g, washed with 1 volume of 1X
# 203 Phosphate Buffered Saline (PBS), and resuspended in urease broth. Bacterial cultures were […]
# 205 measured at 415 nm, 560 nm, and 600 nm every 20 mins for 24 hours, shaking at 37°C using a
# 206 BioTek Synergy|H1 microtiter plate reader. Urease activity was calculated by dividing the OD […]
# P. mirabilis urease [3] = target: T1, P. mirabilis urease; assay type: cell-based; remark: listed apart in the source
# Experimental: To assess the synergistic effects of dampening metabolites when used in combination with each other, P. mirabilis urease activity was measured as described above. Between 4-6 different concentrations for each dampening metabolite were tested both alone and in combination (See Fig. 6a for example). […] To account for variability between experiments, all conditions tested were performed on a single 96-well plate with three technical replicates for each condition. To compare between biologic replicates, percent inhibition relative to untreated P. mirabilis was calculated for each condition using the average area under the curve over 120-180 minutes (so that the positive control activity curve saturated without any increase in the negative control curve).
# Statistical analysis was conducted using a one sample T test of the combination index compared to a hypothetical value of 1 (additive effect). […] Therefore, combination indexes were calculated using a desired effect size less than 40% were indicated with an * in Fig. 6b and in Supplementary Data 5.
# [4] = tested on: Helicobacter pylori urease; parameters: method as in earlier work; conditions: cited from earlier work
# P. mirabilis urease [5] = tested on: P. mirabilis urease; parameters: method as in PMID 8494373; conditions: limited concentrations tested; cited from earlier work
# [6] = tested on: P. mirabilis catheter biofilms; assay: Antibiotic testing in the in vitro “bladder” model; assay type: cell-based, Proteus mirabilis; conditions: 1ug/mL ceftriaxone added at 24 h
# Experimental: The glass “bladder” system assembly, inoculation and sample collection were performed as described above. At 24 h post inoculation glass “bladders” were supplied with media containing the same metabolite (or AUM only control) with or without 1 µg/mL ceftriaxone sodium salt hydrate (Cayman Chemical Company, Michigan, USA). Samples were then collected from the catheter port at 27, 30, 33, 36 and 48 h to monitor pH and bacterial CFUs. After 48 h, the catheters were carefully removed, sectioned and assessed for bacterial viability as detailed in Supplementary Methods.
compound,measurement,setting,value
2-Hydroxy-4-methoxybenzaldehyde,urease operon expression,urease operon (ureR),reduce urease operon expression
"O=C(O)C(=O)Cc1ccccc1 [phenylpyruvate, Sodium phenylpyruvate monohydrate]",effect on P. mirabilis urease activity (whole cell),"P. mirabilis urease [1]; potassium phosphate buffer, dose response",reproducibly decreased; also recorded: only modest activity
same,Urease dampening activity,"P. mirabilis urease [1]; screen of candidate metabolites, highest concentration tested 20mM, * Trending but not statistically significant",Yes
same,JBU activity,Jack Bean Urease (JBU),did not inhibit; also recorded: no activity
same,ureE and ureF transcript levels,[2],modestly increased
same,urease activity in M. morganii,M. morganii urease,no activity
same,urease activity in P. stuartii,P. stuartii urease,no activity
same,urease activity in MRSA,UTI MRSA urease,most potent urease inhibition
same,concentrations required to achieve a significant combination index,P. mirabilis urease [3],> 50 mM
COc1ccc2[nH]c([S+]([O-])Cc3ncc(C)c(OC)c3C)nc2c1 (stereo not drawn) [Omeprazole],Helicobacter pylori urease activity,[4],inhibit
same,P. mirabilis urease activity,P. mirabilis urease [5],did not inhibit
"CO/N=C(\C(=O)N[C@@H]1C(=O)N2C(C(=O)O)=C(CSc3nc(=O)c(=O)[nH]n3C)CS[C@H]12)c1csc(N)n1 [ceftriaxone, ceftriaxone sodium salt hydrate]",AUM pH compared to the control “bladder”,[6],no impact on pH
same,reduction in CFU/mL by the end of the experiment,"[6]; effluent, 48 h",3 log
Cc1c(OCC(F)(F)F)ccnc1C[S+]([O-])c1nc2ccccc2[nH]1 (stereo not drawn) [lansoprazole],Helicobacter pylori urease activity,[4],inhibit
same,P. mirabilis urease activity,P. mirabilis urease [5],did not inhibit
